US11130733B2, “4-OXO-alkylated tetramic acid compound, preparation method and use thereof” (BEIJING JOEKAI BIOTECH. LLC, priority 2017, dated 2021)

Key:
CR mice = assay: MTD experiment, dose gradient by gavage; format: in vivo; conditions: for Survival number: 10 mice per dose
Experimental: Mice are commonly used rodents to evaluate the toxicity of a test sample and are also an important part of early preclinical safety evaluation. In this experiment, the toxicity of compound 50561 was tested by administering a dose gradient thereof to the mice by gavage and observing its toxicity.
This experiment was designed such that for each dose centration, 10 mice were tested, including half males and half females. The males each weighed about 18-23 grams, and the females each weighed about 17-21 grams. They were randomly grouped by a simple randomization procedure. All the animals used in the experiment weighed between ±20% of the average body weight of their respective genders. If there are not enough animals in the study to meet the weight range required thereby, notify the responsible person of the project to take reasonable measures. Animals must be adapted to the laboratory for at least three days. During this period, daily cage observation was conducted once a day, and a detailed clinical observation was necessary before the experiment. Any animal with symptoms or physical abnormalities would be reported to the attending veterinarian and responsible person of the project, and excluded whenever possible. Animals suitable for experimentation will be assigned to respective experimental groups according to the random grouping method described above.
During the experiment, after administration, all animals were observed continuously for 4 hours; from the end of administration till 3 days thereafter, observations were carried out twice each day, one in the morning and the other in the afternoon; and then observation was carried out once a day. Observations included but were not limited to: skin, hair, eyes, ears, nose, mouth, chest, abdomen, external genitals, limbs, and feet. The respiratory and circulatory systems, autonomic effects (such as salivation), and nervous system (such as tremors, convulsions, stress responses, and abnormal behaviors) should be focused on. Complete anatomical examinations would be performed on all animals that had died, were dying, or planned to be euthanized. Animals found dead outside of fixed working hours could be placed in the refrigerator overnight and dissected immediately on the next working day. At the end of the experiment (14th day after administration), all animals requiring autopsy would be euthanized and autopsied.
External abnormalities in animals, such as palpable masses, should be examined in detail. The skin would be cut along the midline of the abdomen, and any subcutaneous mass would be confirmed in conjunction with the findings in the observations of animal symptoms. […] Diseased organs were removed, weighed, recoded, and kept in a fixative fluid.

[1] = system: Salmonella typhimurium TA100; assay: Mini Ames experiment, strain TA100; format: cell-based
Experimental: (§1) Histidine auxotrophic strains of Salmonella typhimurium were cultured in a special medium with quite a low content of histidine. The strains were difficult to divide due to lack of nutrition. If a test compound has mutagenicity, a large number of cells will undergo reverse mutation, synthesizing histidine by themselves and developing into colonies visible to the naked eye. In view of the close relationship between mutagenicity and carcinogenesis of chemicals, this method has been widely used in screening carcinogens. Some chemicals need metabolic activation to induce mutagenicity. Mammalian microsomal enzyme S9 can be added into the test system to eliminate the influence of metabolic activation on generation of mutagenicity.
(§2) […] Mini Ames test with compound 50561

[2] = system: Transgenic mice containing APP/PS1; assay: Water maze test of spatial memory in mice; format: in vivo
Experimental: Transgenic mice containing APP/PS1 were purchased from the Jackson Laboratory of the USA. The transgenic mice were crossbred with B6/C3 background mice. Their offspring were self-bred, genotyped, and each fed in a separate cage for about 8 months. One week before the test, a prescribed dose of medicament was administered to the mice by gavage each day, and then the spatial memory of the mice was measured by water maze test. A water tank with a diameter of 1.5 meters was filled with water at a constant temperature of 25 degrees, and skim milk was added to render the water surface opaque. A transparent platform was placed in a specific quadrant of the water tank. Distant hints were provided as spatial reference. The mice were put into the water and allowed to swim until they found the platform under the surface of water. The whole process was tracked by software, and the time from launching to finding the platform, called a latent period, was recorded thereby. If a mouse could not find the platform within 60 seconds, it was manually guided to the platform and its latent period was recorded as 60 seconds. Four rounds of the above tests were carried out on each mouse every day, with a one-hour interval between every two rounds of tests for the mice to rest. The latent period of each mouse on a day was the average of the four rounds of tests on the same day.

[3] = system: Salmonella typhimurium TA98; assay: Mini Ames experiment, strain TA98; format: cell-based
Experimental: as §1, §2

[4] = TA100, With Metabolic Activation, 1.5 μg per well
[5] = TA100, With Metabolic Activation, 4 μg per well
[6] = TA100, With Metabolic Activation, 10 μg per well
[7] = TA100, With Metabolic Activation, 25 μg per well
[8] = TA100, With Metabolic Activation, 64 μg per well
[9] = TA100, With Metabolic Activation, 160 μg per well
[10] = TA100, With Metabolic Activation, 400 μg per well
[11] = TA100, With Metabolic Activation, 1000 μg per well
[12] = TA100, Without Metabolic Activation, 1.5 μg per well
[13] = TA100, Without Metabolic Activation, 4 μg per well
[14] = TA100, Without Metabolic Activation, 10 μg per well
[15] = TA100, Without Metabolic Activation, 25 μg per well
[16] = TA100, Without Metabolic Activation, 64 μg per well
[17] = TA100, Without Metabolic Activation, 160 μg per well
[18] = TA100, Without Metabolic Activation, 400 μg per well
[19] = TA100, Without Metabolic Activation, 1000 μg per well
[20] = TA98, With Metabolic Activation, 1.5 μg per well
[21] = TA98, With Metabolic Activation, 4 μg per well
[22] = TA98, With Metabolic Activation, 10 μg per well
[23] = TA98, With Metabolic Activation, 25 μg per well
[24] = TA98, With Metabolic Activation, 64 μg per well
[25] = TA98, With Metabolic Activation, 160 μg per well
[26] = TA98, With Metabolic Activation, 400 μg per well
[27] = TA98, With Metabolic Activation, 1000 μg per well
[28] = TA98, Without Metabolic Activation, 1.5 μg per well
[29] = TA98, Without Metabolic Activation, 4 μg per well
[30] = TA98, Without Metabolic Activation, 10 μg per well
[31] = TA98, Without Metabolic Activation, 25 μg per well
[32] = TA98, Without Metabolic Activation, 64 μg per well
[33] = TA98, Without Metabolic Activation, 160 μg per well
[34] = TA98, Without Metabolic Activation, 400 μg per well
[35] = TA98, Without Metabolic Activation, 1000 μg per well

O=C1C=C(OCc2ccc(F)cc2)[C@H](Cc2ccccc2)N1 [Compound 50561]
Remarks: condition of the body (CR mice; 250 mg/kg): in good condition.
Survival number (CR mice; 250 mg/kg by gavage): 10
Remarks: Body weight decreased by (CR mice; 250 mg/kg, quickly recovered): about 2 g, which was quickly
Remarks: Body weight decreased by (CR mice; 500 mg/kg): about 2 g; individual activity
Remarks: condition of the body; organs of the dead individuals (CR mice; 500 mg/kg): in good condition. There
Survival number (CR mice; 500 mg/kg by gavage): 8
Remarks: organs in dead individuals (CR mice; 750 mg/kg): No abnormality of organs
Survival number (CR mice; 750 mg/kg by gavage): 0
Remarks: organs in dead individuals (CR mice; 1000 mg/kg): No abnormality of organs
Survival number (CR mice; 1000 mg/kg by gavage): 0
maximum tolerance (MTD) (CR mice; CR mice, by gavage): < 500 mg/kg
Mean Revertants Per Well [1, 4]: 25.33
Ratio Treated/Solvent [1, 4]: 0.78
Mean Revertants Per Well [1, 5]: 30.33
Ratio Treated/Solvent [1, 5]: 0.93
Mean Revertants Per Well [1, 6]: 32.33
Ratio Treated/Solvent [1, 6]: 0.99
Mean Revertants Per Well [1, 7]: 28.67
Ratio Treated/Solvent [1, 7]: 0.88
Mean Revertants Per Well [1, 8]: 31.00
Ratio Treated/Solvent [1, 8]: 0.95
Mean Revertants Per Well [1, 9]: 28.33
Ratio Treated/Solvent [1, 9]: 0.87
Mean Revertants Per Well [1, 10]: 0.00
Ratio Treated/Solvent [1, 10]: 0.00
Mean Revertants Per Well [1, 11]: 0.00
Ratio Treated/Solvent [1, 11]: 0.00
Mean Revertants Per Well [1, 12]: 25.67
Ratio Treated/Solvent [1, 12]: 1.04
Mean Revertants Per Well [1, 13]: 25.33
Ratio Treated/Solvent [1, 13]: 1.03
Mean Revertants Per Well [1, 14]: 28.67
Ratio Treated/Solvent [1, 14]: 1.16
Mean Revertants Per Well [1, 15]: 19.00
Ratio Treated/Solvent [1, 15]: 0.77
Mean Revertants Per Well [1, 16]: 23.33
Ratio Treated/Solvent [1, 16]: 0.95
Mean Revertants Per Well [1, 17]: 17.33
Ratio Treated/Solvent [1, 17]: 0.70
Mean Revertants Per Well [1, 18]: 0.00
Ratio Treated/Solvent [1, 18]: 0.00
Mean Revertants Per Well [1, 19]: 0.00
Ratio Treated/Solvent [1, 19]: 0.00
mutagenicity ([1]; TA100, presence or absence of S9): no obvious mutagenicity
ability to rescue the spatial memory of mice ([2]; 0.1 mg/kg by gavage, FIG. 5): no ability to rescue the spatial memory of mice
ability to rescue the spatial memory of mice ([2]; 1 mg/kg by gavage, FIG. 5): no ability to rescue the spatial memory of mice
ability to rescue the spatial memory of mice ([2]; 10 mg/kg by gavage, FIG. 4): good ability to rescue the spatial memory of mice
Mean Revertants Per Well [3, 20]: 8.67
Ratio Treated/Solvent [3, 20]: 1.04
Mean Revertants Per Well [3, 21]: 13.33
Ratio Treated/Solvent [3, 21]: 1.60
Mean Revertants Per Well [3, 22]: 9.33
Ratio Treated/Solvent [3, 22]: 1.12
Mean Revertants Per Well [3, 23]: 12.67
Ratio Treated/Solvent [3, 23]: 1.52
Mean Revertants Per Well [3, 24]: 12.33
Ratio Treated/Solvent [3, 24]: 1.48
Mean Revertants Per Well [3, 25]: 7.00
Ratio Treated/Solvent [3, 25]: 0.84
Mean Revertants Per Well [3, 26]: 0.00
Ratio Treated/Solvent [3, 26]: 0.00
Mean Revertants Per Well [3, 27]: 0.00
Ratio Treated/Solvent [3, 27]: 0.00
Mean Revertants Per Well [3, 28]: 9.00
Ratio Treated/Solvent [3, 28]: 1.32
Mean Revertants Per Well [3, 29]: 8.00
Ratio Treated/Solvent [3, 29]: 1.17
Mean Revertants Per Well [3, 30]: 8.00
Ratio Treated/Solvent [3, 30]: 1.17
Mean Revertants Per Well [3, 31]: 8.33
Ratio Treated/Solvent [3, 31]: 1.22
Mean Revertants Per Well [3, 32]: 7.33
Ratio Treated/Solvent [3, 32]: 1.07
Mean Revertants Per Well [3, 33]: 7.33
Ratio Treated/Solvent [3, 33]: 1.07
Mean Revertants Per Well [3, 34]: 0.00
Ratio Treated/Solvent [3, 34]: 0.00
Mean Revertants Per Well [3, 35]: 0.00
Ratio Treated/Solvent [3, 35]: 0.00|
mutagenicity ([3]; TA98, presence or absence of S9): no obvious mutagenicity
